From patent US20260325655A1, “DECREASING THE INTRINSICALLY DISORDERED PROTEIN ALPHA-SYNUCLEIN’S LEVELS BY TARGETING ITS STRUCTURED MRNA WITH A RIBONUCLEASE TARGETING CHIMERA” (University of Florida Research Foundation, Incorporated, priority 2023, published 2026)
Where two headings read alike, the source gives them in different places.

Key:
Type in all cases: cell-based, human
[1] = system: SH-SY5Y cells; assay: proteome-wide analysis in SH-SY5Y cells; conditions: for number of proteins downregulated / number of proteins upregulated / protein expression of seven genes enriched by Syn-CLIP (global proteomics) / number of proteins affected / percent of proteins affected: 2 μM; for number of proteins affected: of 3,436 (Syn-RiboTAC) or 2,813 (Synucleozid-2.0) proteins detected; for percent of proteins affected: of proteins detected
Description: Treatment of SH-SY5Y cells with Syn-RiboTAC for proteome-wide studies. SH-SY5Y cells were seeded in 6-well plates (~60% confluency) and treated with vehicle (0.1% (v/v) DMSO) or Syn-RiboTAC as described above. After 48 h, the cells were gently washed twice with 1× DPBS, harvested by scraping, and resuspended in 1× DPBS. They were then lysed by sonication. Protein concentrations were determined by using BCA Protein Assay Kit (Pierce Biotechnology). Reduction of […]-synuclein protein levels by Syn-RiboTAC were confirmed by Western blotting as described above. Protein samples were then denatured in 50 mM NH4HCO3, pH 8, containing 6 M urea and then reduced with 10 mM TCEP (tris(2-carboxyethyl)phosphine hydrochloride) for 30 min. The proteins were then alkylated with 25 mM iodoacetamide for 30 min in dark. Samples were diluted to 2 M urea containing 50 mM NH4HCO3, pH 8, and digested with trypsin (Thermo Scientific, 1.5 μL of 0.5 μg/μL) containing 1 mM CaCl2) (100× stock in water) at 37° C. for 12 h. Samples were acidified by adding acetic acid to a final concentration of 5% (v/v), desalted by using a self-packed C18 spin column, and dried. Samples obtained were analyzed by LC-MS/MS(as described below), and the MS data were processed with MaxQuant (as described below).
LC-MS/MS analysis and MaxQuant analysis. Peptides obtained above were resuspended in water containing 0.1% (v/v) formic acid and analyzed by using EASY-nLC 1200 nano-UHPLC coupled to Q Exactive HF-X Quadrupole-Orbitrap mass spectrometer (Thermo Scientific). Parameters for the chromatography column and elution methods were the same as previously described.^4 MS data were analyzed by using MaxQuant 14 (V1.6.1.0) and then searched against the human proteome (Uniprot) and a common list of contaminants (included in MaxQuant). The false discovery rate (FDR) for proteins, peptides and sites identification was set at 1%. Parameters were the same as described previously.^4

[2] = system: SH-SY5Y cells; assay: transcriptome-wide RNA-seq in SH-SY5Y cells; conditions: for inhibition at 2 µM: Homo sapiens, not statistically significant
Description: RNA-seq analysis. Total RNA was quantified using the Qubit 2.0 Fluorometer (Invitrogen) and an Agilent 2100 Bioanalyzer RNA nano chip. Samples with RIN>9.0 were proceeded to library preparation using NEBNext Ultra II Directional RNA Kit (Cat. #E7760, NEB) following manufacture's protocol. Briefly, 200 ng of total RNA was depleted of ribosomal RNA using the NEBNext rRNA Depletion Module. The product was chemically fragmented using NEBNext Magnesium RNA Fragmentation Module (E6150S, NEB) the at 94° C. for 15 min. First-strand synthesis was performed with random primers, and second strand was synthesized with dUTP in place of dTTP. After end repair and 3′ adenylation, the cDNA was ligated with adaptors and then treated with USER enzyme (Uracil-specific excision reagent). The product was PCR amplified with Illumina-barcoded primers to generate the cDNA libraries. The final libraries were analyzed on the bioanalyzer DNA chips, pooled in equimolar ratios, and loaded onto the NextSeq 500 v2.5 flow cell and sequenced with 2×40 bp paired-end chemistry. The raw data were aligned to the human genome using STAR.^11 Read counts were extracted using featureCounts,^12 and the differential gene analysis was performed using Deseq2.^13

[3] = system: SNCA mRNA; assay: SNCA mRNA cleavage after siRNA knock-down of RNase L in SH-SY5Y cells
Description: RNA extraction and reverse transcription-quantitative polymerase chain reaction (RT-qPCR). Total RNA was extracted from cells using a Quick-RNA MiniPrep Kit (Zymo Research) per the manufacturer's protocol including DNase treatment. For each sample, 200 ng of RNA was reverse transcribed into cDNA by using a qScript cDNA Synthesis Kit (QuantaBio) according to the manufacturer's instructions. To assess the relative mRNA levels, RT-qPCR was performed in triplicate using SYBR Green PCR mater mix (Applied Biosystems) with a Quant Studio 5 Real-Time PCR system. The relative levels of mRNA were calculated by using the ΔΔCt method as previously described.^8
Transfection of siRNAs. The siRNAs were purchased from commercial sources as listed in General information. The α-synuclein siRNA (final concentration of 200 nM) or RNase L siRNA (final concentration of 50 nM) were transfected into SH-SY5Y cells (at ~60% confluency in 12-well plates) by using the Lipofectamine RNAiMax (Life technologies) per manufacturer's protocol.

[4] = of 447 detectable IRE-containing mRNAs

With `O=C(CSc1nnc(-c2ccncc2)n1-c1ccc(Br)cc1)Nc1ccc2cn[nH]c2c1` [Synucleozid-2.0] the “number of proteins downregulated” value [1] was 55, the “number of proteins upregulated” value [1] was 95 and the “protein expression of seven genes enriched by Syn-CLIP (global proteomics)” value [1] was “not significantly altered”. For the same compound, the “number of proteins affected” value [1] was 150 and the “percent of proteins affected” value [1] was 0.53%.
In the case of `CCOC(=O)C1=C(Nc2ccccc2)S/C(=C\c2ccc(OCCOCCOCCOCCNC(=O)CCCOc3ccc(-n4c(SCC(=O)Nc5ccc6cn[nH]c6c5)nnc4-c4ccncc4)cc3)c(O)c2)C1=O` [Syn-RiboTAC], the “number of genes downregulated” value ([2]; 2 μM, of 30,175 genes detected) is reported as 34, the “number of genes upregulated” value ([2]; 2 μM, of 30,175 genes detected) is reported as 14 and the “percent of genes affected” value ([2]; 2 μM, of 30,175 genes detected) is reported as 0.16%. The “number of genes affected” value ([2]; 2 μM, of 30,175 genes detected, log 2fold change >0.58, p<0.05) was 48, the inhibition at 2 µM ([2]; SH-SY5Y, RNA-seq, read-out: reduction of BLVRB transcript level) was roughly 20% and the inhibition at 2 µM ([2]; SH-SY5Y, RNA-seq, read-out: reduction of SNCA transcript abundance by RNA-seq) was roughly 35%. For the same compound, the “APP, ferritin, and TfR transcript levels in the RNA-seq data” value ([2]; RNA-seq, SH-SY5Y) was “unaffected”, the “number of bound transcripts whose levels were reduced (cleaved)” value ([2]; of 38 Chem-CLIP-bound transcripts detected in RNA-seq, including SNCA) was “four” and the “number of IRE-containing mRNAs affected” value [2, 4] was 19. For the same compound, the “number of IRE-containing mRNAs downregulated” value [2, 4] was 11, the “number of IRE-containing mRNAs upregulated” value [2, 4] was 8 and the “effect of scrambled control siRNA on Syn-RiboTAC activity” value ([3]; scrambled control siRNA) was “No significant effect on activity”. The “effect on SNCA mRNA after RNase L knock-down” value ([3]; siRNA pool against RNase L) was “ablated the effect of Syn-RiboTAC on SNCA mRNA”, the “enhancement in selectivity on the proteome vs Synucleozid 1.0” value [1] was ~ 16 -fold and the “number of proteins downregulated” value [1] was 114. The “number of proteins upregulated” value [1] was 80, the “protein expression of seven genes enriched by Syn-CLIP (global proteomics)” value [1] was “not significantly altered” and the “number of proteins affected” value [1] was 194. The “percent of proteins affected” value [1] was 0.56%, the “number of changed proteins that also showed the corresponding change at the transcript level” value ([1]; of 194 changed proteins) was 86 and the “percent of changed proteins with corresponding transcript change” value ([1]; of 194 changed proteins) was 44%.
